Experimental data published in US20160257676A1, “Aminoisoquinoline Derivatives as Protein Kinase Inhibitors” (ETERNITY BIOSCIENCE INC., priority 2012, published 2016).

How the values were obtained:
BRAF^V600E = BRAF^V600E (Homo sapiens, UniProt P15056, V600E); test: BRAF^V600E enzymatic activity assay (LanthaScreen kinase assay kit, TR-FRET)
Description: The assay was conducted according to the procedure provided in the assay kit. […] The final reaction volume for each reaction was 10 μl. The reaction was stopped by addition of 10 μl of TR-FRET dilution buffer supplemented with kinase quench buffer (10 mM EDTA final) and Tb-anti-pMAP2K1 (2 nM final). […] IC50 value was calculated using appropriate programs in GraphPad Prism by plotting the logarithm of the concentration versus percent inhibition.

A375 cells = test: Cell proliferation assay (CellTiter-Glo), A375 cells; type: cell-based; conditions: Homo sapiens, A-375, 72 h, 3-day treatment, vs vehicle control (1% DMSO), read-out: A375 cell growth IC50
Description: Cell Proliferation Assay:
A375, Colo-205, Calu-6, and SW-480 cells were purchased from American Type Culture Collection (USA). All cells were cultured in the recommended medium and serum concentration. Cells were maintained at 37° C. in a humidified atmosphere with 5% CO2. For cell proliferation assay, cells were seeded in 96-well pates at a density of 1,000 to 5,000 cells per well and cultured overnight at 37° C. in medium supplemented with 5-10% FBS. On the next day, the test articles at various concentrations or vehicle control (1% DMSO) were added into cell culture. After 3-day treatment, the growth of cells was assayed by the CellTiter-Glo® Luminestceaent Cell Viability Assay (Promega).

BRAF^V600E, sequence (P15056 whole entry V600E): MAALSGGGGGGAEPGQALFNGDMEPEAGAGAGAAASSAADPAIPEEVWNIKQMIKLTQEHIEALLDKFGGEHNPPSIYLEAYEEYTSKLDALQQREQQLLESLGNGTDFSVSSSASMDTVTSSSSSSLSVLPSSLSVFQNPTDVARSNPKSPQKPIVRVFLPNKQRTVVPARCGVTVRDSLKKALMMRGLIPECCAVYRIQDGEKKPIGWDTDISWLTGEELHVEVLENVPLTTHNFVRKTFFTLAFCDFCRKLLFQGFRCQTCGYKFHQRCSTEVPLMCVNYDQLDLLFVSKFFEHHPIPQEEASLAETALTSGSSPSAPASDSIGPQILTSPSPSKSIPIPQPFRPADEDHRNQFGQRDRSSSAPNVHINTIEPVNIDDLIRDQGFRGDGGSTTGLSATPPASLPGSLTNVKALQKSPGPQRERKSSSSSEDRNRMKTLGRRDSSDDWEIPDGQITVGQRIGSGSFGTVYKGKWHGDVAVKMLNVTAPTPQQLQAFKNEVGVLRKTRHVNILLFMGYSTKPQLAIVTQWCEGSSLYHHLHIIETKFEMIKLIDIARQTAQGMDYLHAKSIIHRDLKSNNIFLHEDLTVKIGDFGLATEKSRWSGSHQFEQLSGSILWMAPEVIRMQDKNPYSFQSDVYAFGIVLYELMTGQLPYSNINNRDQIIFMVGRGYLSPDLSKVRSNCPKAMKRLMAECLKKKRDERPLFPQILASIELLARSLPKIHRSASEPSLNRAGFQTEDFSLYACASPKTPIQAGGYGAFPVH

| SMILES | IC50 (BRAF^V600E) [nM] | IC50 (A375 cells) [nM] |
| --- | --- | --- |
| CCCS(=O)(=O)Nc1ccc(F)c(-c2ccc3cc(N)ncc3c2)c1F [Example 1, N-(3-(3-aminoisoquinolin-7-yl)-2,4-difluorophenyl)propane-1-sulfonamide] | 8690 | 103 |
| CCCS(=O)(=O)Nc1ccc(F)c(-c2ccc3cc(NC[C@H](C)NC(=O)OC)ncc3c2)c1F [Example 2, (S)-methyl-1-(7-(2,6-difluoro-3-(propylsulfonamido)phenyl)isoquinolin-3-ylamino)propan-2-ylcarbamate] |  | 775 |
| CCCS(=O)(=O)Nc1ccc(F)c(-c2cc3cnc(N)cc3cc2OC)c1F [Example 3, N-(3-(3-amino-6-methoxyisoquinolin-7-yl)-2,4-difluorophenyl)propane-1-sulfonamide] | 799 | 1000 |
| CCCS(=O)(=O)Nc1ccc(F)c(-c2cc3cnc(NC[C@H](C)NC(=O)OC)cc3cc2OC)c1F [Example 4, methyl N-[(1S)-2-[[7-[2,6-difluoro-3-(propylsulfonylamino)phenyl]-6-methoxy-3-isoquinolyl]amino]-1-methyl-ethyl]carbamate] | 212 | 19 |
| CCCS(=O)(=O)Nc1ccc(F)c(-c2cc3cnc(NC[C@@H](C)NC(=O)OC)cc3cc2OC)c1F [Example 5, methyl N-[(1R)-2-[[7-[2,6-difluoro-3-(propylsulfonylamino)phenyl]-6-methoxy-3-isoquinolyl]amino]-1-methyl-ethyl]carbamate] | 3660 | 726 |
| CCCS(=O)(=O)Nc1ccc(F)c(-c2cc3cnc(NC[C@H](C)NC(=O)OC)cc3cc2OCCF)c1F [Example 6, methyl N-[(1S)-2-[[7-[2,6-difluoro-3-(propylsulfonylamino)phenyl]-6-(2-fluoroethoxy)-3-isoquinolyl]amino]-1-methyl-ethyl]carbamate] | 100 | 158 |
| CCCS(=O)(=O)Nc1ccc(F)c(-c2cc3cnc(NC[C@H](C)NC(=O)OC)cc3cc2CC)c1F [Example 7, methyl N-[(1S)-2-[[7-[2,6-difluoro-3-(propylsulfonylamino)phenyl]-6-ethyl-3-isoquinolyl]amino]-1-methyl-ethyl]carbamate] | 560 | 306 |
| CCCS(=O)(=O)Nc1ccc(F)c(-c2ccc3c(cnc4[nH]ncc43)c2)c1F [Example 8, N-(2,4-difluoro-3-(3H-pyrazolo[3,4-c]isoquinolin-7-yl)phenyl)propane-1-sulfonamide] | 70 | 227 |
| CCCS(=O)(=O)Nc1ccc(F)c(-c2ccc3c(cnc4[nH]nc(Br)c43)c2)c1F [Example 9, N-(3-(1-bromo-3H-pyrazolo[3,4-c]isoquinolin-7-yl)-2,4-difluorophenyl)propane-1-sulfonamide] |  | 145 |
| CCCS(=O)(=O)Nc1ccc(F)c(-c2ccc3c(cnc4[nH]nc(C5CC5)c43)c2)c1F [Example 10, N-(3-(1-cyclopropyl-3H-pyrazolo[3,4-c]isoquinolin-7-yl)-2,4-difluorophenyl)propane-1-sulfonamide] | 2710 | 145 |
| CCCS(=O)(=O)Nc1ccc(F)c(-c2ccc3c(cnc4[nH]ncc43)c2)c1Cl [Example 11, N-(2-chloro-4-fluoro-3-(3H-pyrazolo[3,4-c]isoquinolin-7-yl)phenyl)propane-1-sulfonamide] | 18.3 | 95 |
| CCCS(=O)(=O)Nc1ccc(F)c(-c2ccc3c(cnc4[nH]nc(Br)c43)c2)c1Cl [Example 12, N-(3-(1-bromo-3H-pyrazolo[3,4-c]isoquinolin-7-yl)-2-chloro-4-fluorophenyl)propane-1-sulfonamide] |  | 144 |
| CCCS(=O)(=O)Nc1ccc(F)c(-c2ccc3c(cnc4[nH]nc(C5CC5)c43)c2)c1Cl [Example 13, N-(2-chloro-3-(1-cyclopropyl-3H-pyrazolo[3,4-c]isoquinolin-7-yl)-4-fluorophenyl)propane-1-sulfonamide] | 20 | 64 |
| O=S(=O)(CCCF)Nc1ccc(F)c(-c2ccc3c(cnc4[nH]ncc43)c2)c1F [Example 14, N-(2,4-difluoro-3-(3H-pyrazolo[3,4-c]isoquinolin-7-yl)phenyl)-3-fluoropropane-1-sulfonamide] | 50 | 66 |
| O=S(=O)(CCCF)Nc1ccc(F)c(-c2ccc3c(cnc4[nH]ncc43)c2)c1Cl [Example 15, N-(2-chloro-4-fluoro-3-(3H-pyrazolo[3,4-c]isoquinolin-7-yl)phenyl)-3-fluoropropane-1-sulfonamide] | 6.6 | 23 |
| CCCS(=O)(=O)Nc1ccc(Cl)c(-c2ccc3c(cnc4[nH]ncc43)c2)c1Cl [Example 16, N-(2,4-dichloro-3-(3H-pyrazolo[3,4-c]isoquinolin-7-yl)phenyl)propane-1-sulfonamide] | 41.3 | 341 |
| CCCS(=O)(=O)Nc1ccc(Cl)c(-c2ccc3c(cnc4[nH]ncc43)c2)c1F [Example 17, N-(4-chloro-2-fluoro-3-(3H-pyrazolo[3,4-c]isoquinolin-7-yl)phenyl)propane-1-sulfonamide] | 118 | 131 |
| O=S1(=O)CCCN1c1ccc(F)c(-c2ccc3c(cnc4[nH]ncc43)c2)c1F [Example 18, N-(2,4-difluoro-3-(3H-pyrazolo[3,4-c]isoquinolin-7-yl)phenyl)-1,3-propanesultam] | 3740 | 1000 |
| CCCS(=O)(=O)Nc1ccc(F)c(-c2cc3cnc4[nH]ncc4c3cc2OC)c1F [Example 19, N-(2,4-difluoro-3-(8-methoxy-3H-pyrazolo[3,4-c]isoquinolin-7-yl)phenyl)propane-1-sulfonamide] | 60 | 77 |
| CCCS(=O)(=O)Nc1ccc(F)c(-c2cc3cnc4[nH]ncc4c3cc2OC)c1Cl [Example 20, N-(2-chloro-4-fluoro-3-(8-methoxy-3H-pyrazolo[3,4-c]isoquinolin-7-yl)phenyl)propane-1-sulfonamide] | 10 | 47 |
| COc1cc2c(cnc3[nH]ncc32)cc1-c1c(F)ccc(NS(=O)(=O)CCCF)c1F [Example 21, N-(2,4-difluoro-3-(8-methoxy-3H-pyrazolo[3,4-c]isoquinolin-7-yl)phenyl)-3-fluoropropane-1-sulfonamide] | 70 | 94 |
| COc1cc2c(cnc3[nH]ncc32)cc1-c1c(F)ccc(NS(=O)(=O)CCCF)c1Cl [Example 22, N-(2-chloro-4-fluoro-3-(8-methoxy-3H-pyrazolo[3,4-c]isoquinolin-7-yl)phenyl)-3-fluoropropane-1-sulfonamide] | 12 | 66 |
| CCCS(=O)(=O)Nc1ccc(F)c(-c2cc3cnc4[nH]nc(C5CC5)c4c3cc2OC)c1F [Example 23, N-(3-(1-cyclopropyl-8-methoxy-3H-pyrazolo[3,4-c]isoquinolin-7-yl)-2,4-difluorophenyl)propane-1-sulfonamide] |  | 100 |
| CCCS(=O)(=O)Nc1ccc(F)c(-c2cc3cnc4[nH]nc(C5CC5)c4c3cc2OC)c1Cl [Example 24, N-(2-chloro-3-(1-cyclopropyl-8-methoxy-3H-pyrazolo[3,4-c]isoquinolin-7-yl)-4-fluorophenyl)propane-1-sulfonamide] |  | 284 |
| COc1cc2c(cnc3[nH]nc(C4CC4)c32)cc1-c1c(F)ccc(NS(=O)(=O)CCCF)c1Cl [Example 25, N-(2-chloro-3-(1-cyclopropyl-8-methoxy-3H-pyrazolo[3,4-c]isoquinolin-7-yl)-4-fluorophenyl)-3-fluoropropane-1-sulfonamide] |  | 25 |
| COc1cc2c(cnc3[nH]nc(C4CC4)c32)cc1-c1c(F)ccc(NS(=O)(=O)CCCF)c1F [Example 26, N-(3-(1-cyclopropyl-8-methoxy-3H-pyrazolo[3,4-c]isoquinolin-7-yl)-2,4-difluorophenyl)-3-fluoropropane-1-sulfonamide] | 48.8 | 29.7 |
| CCCS(=O)(=O)Nc1ccc(F)c(-c2ccc3c(cnc4[nH]ccc43)c2)c1F [Example 27, N-(2,4-difluoro-3-(3H-pyrrolo[2,3-c]isoquinolin-7-yl)phenyl)propane-1-sulfonamide] | 690 | 1000 |
| CCCS(=O)(=O)Nc1ccc(F)c(-c2ccc3c(cnc4[nH]cnc43)c2)c1F [Example 28, N-(2,4-difluoro-3-(3H-imidazo[4,5-c]isoquinolin-7-yl)phenyl)propane-1-sulfonamide] | 389 | 309 |
